Test results as given in article PMC8311653, “Design, Synthesis, In Vitro and In Vivo Characterization of Selective NKCC1 Inhibitors for the Treatment of Core Symptoms in Down Syndrome” (Journal of Medicinal Chemistry, 2021).
Values after ≈ are worked out from the molar mass of the structure shown. “Also recorded” adds a separate entry of the source.

Legend:
NKCC1 = biological target: T1, NKCC1 (Homo sapiens, UniProt P55011); experiment: Cl- influx assay in NKCC1-transfected HEK293 cells; format: cell-based; conditions: for inhibition at 10 µM: HEK293, read-out: Inhibition 10 μM Cl- influx (%); for inhibition at 100 µM: HEK293, read-out: Inhibition 100 μM Cl- influx (%); for Inhibition 10 μM Cl- influx (%) / Inhibition 100 μM Cl- influx (%): NKCC1-transfected HEK293 cells
T1 construct: host or cells: HEK293
T1 sequence (P55011 1-1212): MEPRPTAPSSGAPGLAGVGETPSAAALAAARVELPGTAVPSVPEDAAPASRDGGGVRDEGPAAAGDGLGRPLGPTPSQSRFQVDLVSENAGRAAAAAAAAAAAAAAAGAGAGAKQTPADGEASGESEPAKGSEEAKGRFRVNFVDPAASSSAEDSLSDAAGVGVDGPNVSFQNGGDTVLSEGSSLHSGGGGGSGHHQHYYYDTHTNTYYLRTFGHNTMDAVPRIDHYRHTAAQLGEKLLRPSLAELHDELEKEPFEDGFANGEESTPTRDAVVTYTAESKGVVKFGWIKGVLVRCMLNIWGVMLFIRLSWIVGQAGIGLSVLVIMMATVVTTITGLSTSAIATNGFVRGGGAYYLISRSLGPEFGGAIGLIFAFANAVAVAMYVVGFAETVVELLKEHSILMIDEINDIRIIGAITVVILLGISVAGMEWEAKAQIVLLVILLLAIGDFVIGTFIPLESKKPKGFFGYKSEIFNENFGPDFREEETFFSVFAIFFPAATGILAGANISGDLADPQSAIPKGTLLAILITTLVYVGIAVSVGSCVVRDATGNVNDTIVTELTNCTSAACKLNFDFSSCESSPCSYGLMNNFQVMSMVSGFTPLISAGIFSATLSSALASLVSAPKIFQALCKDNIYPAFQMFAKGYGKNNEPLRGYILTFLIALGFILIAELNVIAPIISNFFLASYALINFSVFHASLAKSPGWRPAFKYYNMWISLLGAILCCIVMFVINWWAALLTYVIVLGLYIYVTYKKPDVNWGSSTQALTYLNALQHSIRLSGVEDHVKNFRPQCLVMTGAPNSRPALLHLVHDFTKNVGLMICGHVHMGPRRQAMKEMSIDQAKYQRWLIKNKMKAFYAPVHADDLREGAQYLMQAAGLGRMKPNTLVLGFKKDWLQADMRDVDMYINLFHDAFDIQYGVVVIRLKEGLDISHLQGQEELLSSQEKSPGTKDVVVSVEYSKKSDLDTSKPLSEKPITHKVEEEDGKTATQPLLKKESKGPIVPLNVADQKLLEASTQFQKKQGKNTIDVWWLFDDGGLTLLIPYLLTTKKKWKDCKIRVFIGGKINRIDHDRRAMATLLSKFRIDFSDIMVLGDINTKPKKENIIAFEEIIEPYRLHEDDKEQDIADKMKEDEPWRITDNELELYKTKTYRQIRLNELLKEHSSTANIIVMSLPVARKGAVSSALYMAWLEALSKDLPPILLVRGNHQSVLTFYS
Procedure: HEK293 cells were cultured in Dulbecco’s modified Eagle’s medium (DMEM) supplemented with 10% fetal bovine serum, 1% L-glutamine, 100 U/mL penicillin, and 100 μg/mL streptomycin and maintained at 37 °C in a 5% CO2 humidified atmosphere. To assess NKCC1 and NKCC2 activity (Cl^– influx assay), 3 million HEK cells were plated in a 10 cm cell-culture dish and transfected with a transfection mixture comprising 5 mL of DMEM, 4 mL of Opti-MEM, 8 μg of DNA plasmid coding for NKCC1 (PRK-NKCC1 obtained from Medical Research Council and the University of Dundee), NKCC2 (OriGene plasmid #RC216145) subcloned in PRK5 plasmid, or mock control (empty vector), together with 8 μg of a plasmid coding for the Cl^–-sensitive variant of the membrane-targeted fluorescent protein YFP, mbYFPQS (Addgene plasmid #80742),[53] and 32 μL of Lipofectamin 2000. To assess KCC2 activity (Tl influx assay), cells were transfected with 8 μg of KCC2[54] subcloned in the PRK5 plasmid or mock control (empty vector) and 16 μL of Lipofectamin 2000. After 4 h, the cells were collected and plated in 96-well black-walled, clear-bottomed plates at a density of 2.5 × 10^4. After 48 h, cells were used for the Cl^– or Tl influx assays. All reagents were purchased from Life Technologies, unless otherwise specified.
Transfected cells were treated with 10 μM or 100 μM bumetanide (as positive controls), DMSO (as the negative control), or with each of our compounds in 100 μL/well of a Cl^–-free hypotonic solution (67.5 mM Na^+ gluconate, 2.5 mM K^+ gluconate, 15 mM HEPES pH 7.4, 50 mM glucose, 1 mM Na2HPO4, 1 mM NaH2PO4, 1 mM MgSO4, and 1 mM CaSO4). After 30 min of incubation, plates were loaded into a Victor 3V (PerkinElmer) multiplate reader equipped with an automatic liquid injector system, and fluorescence of Cl^–-sensitive mbYFPQS was recorded with excitation at 485 nm and emission at 535 nm. For each well, fluorescence was first recorded for 20 s of the baseline and for 60 s after delivery of a NaCl concentrated solution (74 mM final concentration in the assay well). Fluorescence of Cl^–-sensitive mbYFPQS is inversely correlated to the intracellular Cl^– concentration;[53] therefore, chloride influx into the cells determined a decrease in mbYFPQS fluorescence. To represent the fluorescent traces in time, we normalized the fluorescence value for each time point to the average of the fluorescence value of the first 20 s of the baseline (ΔF/F0). To quantify the average effects as represented by the bar plots, we expressed the decrease in fluorescence upon NaCl application as the average of the last 10 s of ΔF/F0 normalized traces. Moreover, for each experiment, to account for the contribution of Cl^– changes that were dependent on transporters/exchangers other than NKCC1 or NKCC2, we subtracted the value of the last 10 s of ΔF/F0 normalized traces obtained from mock-transfected cells (either control or treated) from the respective ΔF/F0 value obtained from the cells transfected with NKCC1 or NKCC2. We then presented in the figures all the data as a percentage of the fluorescence decrease versus the value of the control DMSO.

[1] = Aqueous kinetic solubility in PBS pH 7.4; format: physicochemical; conditions: phosphate buffered saline (PBS); aqueous kinetic solubility from 10 mM DMSO solution in PBS pH 7.4; target concentration 250 μM (final DMSO 2.5%)
Procedure: 1. Aqueous kinetic solubility.
30 µL aliquots of 10 mM DMSO stock solution of the test compound were incubated in Phosphate
Buffered Saline (PBS) at pH 7.4 at 25°C for 24h. After centrifugation the dissolved compound in the
supernatant was quantified by LC-MS/MS.
Aqueous kinetic solubility was determined by UV quantification at
215 nm. […]

[2] = In vitro metabolic stability in mouse liver microsomes; conditions: tissue homogenate, pH 7.4
Procedure: 1. Aqueous kinetic solubility. […]
3. In vitro mouse microsomial stability. […]
microsomes (Sekisui Xenotech, LCC), 0.1M Tris-HCl buffer (pH 7.4), and 10% DMSO. The final […]
After pre-incubation, the cofactors (NADPH, G6P, G6PDH, MgCl2 pre-dissolved in 0.1M Tris-HCl) were added to the incubation mixture and the incubation was continued at 37 °C for 1h. At each time point (0, 5, 15, 30, 60 min), 30µL of incubation mixture was diluted with 200 µL cold acetonitile spiked with 200 nM of warfarin as internal standard, followed by centrifugation at 3500 g for 30 min. The supernatant was further diluted with H2O (1:1) for analysis.
An aliquot of 200 µl of the supernatant was removed, and the concentration of the test compound was […]
quantified by LC-MS/MS. The percentage of the test compound remaining at each time point relative […]
to t=0 was calculated. The half-lives (t½) were determined by a one-phase decay equation using a […]
non-linear regression of compound concentration vs time.

Row | Compound | inhibition at 10 µM (NKCC1) [%] | inhibition at 100 µM (NKCC1) [%] | solubility at 24 h [1] [µM] | half-life at 5 μM [2] [min] | Inhibition 10 μM Cl- influx (%) (NKCC1) | Inhibition 100 μM Cl- influx (%) (NKCC1)
1 | CCCCCCNc1ccc([N+](=O)[O-])cc1S(=O)(=O)NC [Compound 3, 2-(Hexylamino)-N-methyl-5-nitro-benzenesulfonamide] | 6.4 ± 3.4 | 29.4 ± 2.8 | 1 (≈ 0.315 µg/mL) | < 5 | – | –
2 | CNS(=O)(=O)c1cc([N+](=O)[O-])ccc1NCCC(C)(C)C [Compound 4, 2-(3,3-Dimethylbutylamino)-N-methyl-5-nitro-benzenesulfonamide] | 17.7 ± 3.9 | 28.7 ± 4.4 | 3 (≈ 0.946 µg/mL) | 6 | – | –
3 | CCCCNc1ccc([N+](=O)[O-])cc1S(N)(=O)=O [Compound 5, 2-(Butylamino)-5-nitro-benzenesulfonamide] | – | 4.7 ± 13.3 | 85 (≈ 23.2 µg/mL) | 6 | Inactive | –
4 | CCCCCCNc1ccc([N+](=O)[O-])cc1S(N)(=O)=O [Compound 6, 2-(Hexylamino)-5-nitro-benzenesulfonamide] | – | 3.8 ± 5.6 | 6 (≈ 1.81 µg/mL) | < 5 | no inhibitory activity; also recorded: Inactive | –
5 | CCCCCCCCNc1ccc([N+](=O)[O-])cc1S(N)(=O)=O [Compound 7, 5-Nitro-2-(octylamino)benzenesulfonamide] | 0.3 ± 2.9 | 5.8 ± 6.8 | < 1 | < 5 | – | –
6 | CC(C)(C)CCNc1ccc([N+](=O)[O-])cc1S(N)(=O)=O [Compound 8, 2-(3,3-Dimethylbutylamino)-5-nitro-benzenesulfonamide] | – | 14.5 ± 10.6 | – | – | Inactive | –
7 | CCCCNc1ccc([N+](=O)[O-])cc1S(=O)(=O)NC [Compound 9, 2-(Butylamino)-N-methyl-5-nitro-benzenesulfonamide] | – | 13.3 ± 11.4 | – | – | Inactive | –
8 | CCCCCCCCNc1ccc([N+](=O)[O-])cc1S(=O)(=O)NC [Compound 10, N-Methyl-5-nitro-2-(octylamino)benzenesulfonamide] | – | – | – | – | Inactive | Inactive
9 | CCCCNc1ccc([N+](=O)[O-])cc1S(=O)(=O)N(C)C [Compound 11, 2-(Butylamino)-N,N-dimethyl-5-nitro-benzenesulfonamide] | – | 15.2 ± 9.6 | – | – | Inactive | –
10 | CCCCCCNc1ccc([N+](=O)[O-])cc1S(=O)(=O)N(C)C [Compound 12, 2-(Hexylamino)-N,N-dimethyl-5-nitro-benzenesulfonamide] | – | 4.9 ± 6.8 | 1 (≈ 0.329 µg/mL) | < 5 | Inactive | –
11 | CCCCCCCCNc1ccc([N+](=O)[O-])cc1S(=O)(=O)N(C)C [Compound 13, N,N-Dimethyl-5-nitro-2-(octylamino)benzenesulfonamide] | – | – | – | – | Inactive | Inactive
12 | CN(C)S(=O)(=O)c1cc([N+](=O)[O-])ccc1NCCC(C)(C)C [Compound 14, 2-(3,3-Dimethylbutylamino)-N,N-dimethyl-5-nitro-benzenesulfonamide] | 10 ± 4.9 | 17 ± 11.9 | – | – | – | –
13 | CCCCNc1ccc(C(=O)O)cc1S(N)(=O)=O [Compound 15, 4-(Butylamino)-3-sulfamoyl-benzoic Acid] | – | 6.4 ± 5.3 | – | – | Inactive | –
14 | CCCCCCNc1ccc(C(=O)O)cc1S(N)(=O)=O [Compound 16, 4-(Hexylamino)-3-sulfamoyl-benzoic Acid] | – | 4.9 ± 3.7 | 238 (≈ 71.5 µg/mL) | > 60 | Inactive | –
15 | CC(C)(C)CCNc1ccc(C(=O)O)cc1S(N)(=O)=O [Compound 18, 4-(3,3-Dimethylbutylamino)-3-sulfamoyl-benzoic Acid] | – | 5.1 ± 4.9 | – | – | Inactive | –
16 | CCCCNc1ccc(C(=O)O)cc1S(=O)(=O)NC [Compound 19, 4-(Butylamino)-3-(-N-methylsulfamoyl)benzoic Acid] | 6.4 ± 2.1 | 6.2 ± 5.7 | – | – | – | –
17 | CNS(=O)(=O)c1cc(C(=O)O)ccc1NCCC(C)(C)C [Compound 22, 4-(-N-3,3-Dimethylbutylamino)-3-(methylsulfamoyl)benzoic Acid] | – | 2.6 ± 3.5 | – | – | Inactive | –
18 | CCCCNc1ccc(C(=O)O)cc1S(=O)(=O)N(C)C [Compound 23, 4-(Butylamino)-3-(-N,N-dimethylsulfamoyl)benzoic Acid] | 2.6 ± 2.8 | 15.6 ± 5.4 | – | – | – | –
19 | COCCCCCCNc1ccc(C(=O)O)cc1S(=O)(=O)N(C)C [Compound 31, 3-(-N,N-Dimethylsulfamoyl)-4-(6-methoxyhexylamino)benzoic Acid] | – | – | > 250 | – | did not show any NKCC1 inhibition; also recorded: Inactive | did not show any NKCC1 inhibition; also recorded: Inactive
